{"source": "patent US20260295137A1", "about": "“METHOD FOR REMOVING UREMIC TOXINS FROM BLOOD” (INSTITUT NATIONAL DE LA SANTÉ ET DE LA RECHERCHE MÉDICALE, priority 2023, published 2026)", "key": {"In vitro hemolysis assay": {"test": "In vitro hemolysis assay", "type": "cell-based, bovine", "details": "bovine, blood, 37° C., control 1.5%; for hemolysis at 4 h, 3000 µM: 3 mmol/L; for hemolysis at 4 h: MCFA 1-3 mmol/L (exact concentration not stated), median (IQR)", "description": "(§1) One milliliter of fresh bovine blood was incubated for 4 h at 37° C. with 50 μL of a solution of medium chain fatty acids (final concentration: 0.25, 0.5, 1, 2 or 3 mmol/L) or PBS as control. A positive control of hemolysis (taken as 100% hemolysis) was produced by incubating 1 mL of bovine blood with 0.1% (v/v) of TRITON X100 followed by 2 freeze-thaw cycles. Samples were centrifuged 2 min at 9000×g and plasma was stored at −20° C. until free hemoglobin assay. Hemolysis was estimated by the free hemoglobin concentration. Hemoglobin concentration was determined spectrophotometrically as described by Fairbanks et al (Clin Chem. 1992 January; 38 (1): 132-40). Briefly, plasma samples were diluted to 1:10 in Na2CO3 9.4 mmol/L and absorbance was read at 415 nm, 450 nm and 700 nm on a microplate reader (Tecan, Lyon, France).\n(§2) Free hemoglobin concentration was calculated using the following equation: […]\n(§3) Wherein: • fHb is the concentration of free hemoglobin in g/L, • A is the absorbance at the specified wavelength, • d is the dilution factor.\n(§4) Results were expressed as percent of total hemolysis.\n(§5) Fresh bovine blood was incubated for 4 h (the full duration of a typical hemodialysis session) at 37° C. in presence of MCFAs (1-3 mmol/L) and dosage of free hemoglobin in plasma was taken as an index of hemolysis (FIG. 6A-D)."}, "human serum albumin [1]": {"molecular_target": "T1, human serum albumin (Homo sapiens, UniProt P02768)", "T1 construct": "purchased Sigma-Aldrich (Saint Quentin Fallavier, France) A9511", "T1 sequence (P02768 25-609)": "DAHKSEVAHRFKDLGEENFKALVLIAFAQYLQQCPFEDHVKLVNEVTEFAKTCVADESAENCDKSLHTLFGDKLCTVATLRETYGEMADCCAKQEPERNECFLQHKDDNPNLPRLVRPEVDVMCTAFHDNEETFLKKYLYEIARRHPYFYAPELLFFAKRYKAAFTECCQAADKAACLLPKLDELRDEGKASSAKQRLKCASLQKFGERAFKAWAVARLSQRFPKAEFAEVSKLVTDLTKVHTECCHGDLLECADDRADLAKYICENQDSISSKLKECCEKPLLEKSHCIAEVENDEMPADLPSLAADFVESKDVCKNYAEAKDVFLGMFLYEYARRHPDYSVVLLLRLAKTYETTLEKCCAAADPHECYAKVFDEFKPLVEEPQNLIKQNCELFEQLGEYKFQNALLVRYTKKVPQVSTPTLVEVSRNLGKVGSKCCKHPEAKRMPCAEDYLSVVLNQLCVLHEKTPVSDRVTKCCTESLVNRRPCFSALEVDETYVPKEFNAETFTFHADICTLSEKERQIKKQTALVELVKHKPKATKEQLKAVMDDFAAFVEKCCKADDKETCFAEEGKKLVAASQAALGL", "test": "Ultrafiltration competition assay: displacement of IS from HSA", "type": "binding", "details": "IS 250 μmol/L, HSA 500 μM; for free fraction of IS: displacer 3 mM, pH 7.40, median (IQR), baseline 10.0%; for concentration dependence of increase in free fraction of IS: displacer 1-3 mM", "description": "(§6) Control experiments were performed by adding the same volume of PBS instead of displacer. Then, 600 μL of samples were transferred in filtration devices (Corning®, Spin-X® UF Concentrator, Wiesbaden, Germany, MWCO: 5 kDa) and were centrifuged at 10,000 g for 5 min and 13,000 g for 15 min at room temperature. Ultrafiltrate was collected and free fraction of IS concentration were assayed fluorometrically as described thereafter.\n(§7) Samples were diluted in PBS and fluorescence was measured with a Jasco FP-8300iRM Spectro-fluorometer (Jasco, Tokyo, Japan).\nThe free fraction of IS was measured using ultrafiltration experiments as described as described above."}, "human serum albumin [2]": {"molecular_target": "T1, human serum albumin", "test": "Ultrafiltration competition assay: displacement of p-CS from HSA", "type": "binding", "details": "for free fraction of p-CS: displacer 3 mM, median (IQR), baseline 14%", "description": "as §6, §7\nThe free fraction of p-CS was measured using ultrafiltration experiments as described as described above."}, "fresh bovine blood": {"tested_on": "fresh bovine blood", "test": "In vitro hemolysis assay", "type": "cell-based", "details": "4 h, 37° C.; for hemolysis compared to control: 1-3 mmol/L", "description": "as §1, §2, §3, §4, §5"}, "[3]": {"test": "Hemodialysis of fresh bovine blood (closed loop): removal of p-CS", "excerpt": "(§8) To assess the reality of the displacement and the increase of the removal of PBUT during a hemodialysis session, batches of 20 liters of fresh bovine blood were collected from the slaughterhouse under the authorization VC18731 (Oct. 4, 2018) issued from the Direction Départmentale de la Protection des Populations—Direction des Services Vétérinaires (DDPP-DSV, Lyon, France). Blood was heparinized at 3,750 UI/L with Sodium Heparin (Choay, Cheplapharm, France) and filtered on a nylon mesh. Two liters of blood (2 L) were spiked with 200 μmol/L of IS and gently stirred for 2 hours at 37° C. A 2-hour hemodialysis session was performed with Fresenius 5008 CorDiax hemodialysis generator (Fresenius, Sevres, France) and with a polysulfone-based hemodialysis membrane (FXHDF1000, 2.2 m^2, Fresenius Medical Care, Bad Homburg, Germany). Arterial and venous port were disposed in the blood batch to perform a closed loop circuit (see representation of the experimental device on FIG. 1). Blood and dialysate flow rates were set at 200 and 300 mL/min, respectively and dialysate temperature was set at 38° C. […] Blood samples were collected from the arterial lines at 0, 15, 30, 45, 60, 75, 90 and 120 minutes. Blood was centrifuged at 9,000 g for 2 minutes and plasma was stored at −20° C. […] At the beginning and the end of the experiment, hemolysis was estimated through the measurement of free hemoglobin in plasma as described above. Total protein concentration was measured according to the method of Lowry using bovine serum albumin as standard. Hematocrit was measured using a micromethod (Mondal H, Lotfollahzadeh S. Hematocrit. 2023 Jan. 2. In: StatPearls [Internet]. Treasure Island (FL): StatPearls Publishing; 2023). Briefly, 70 μL of blood was collected in a heparinized capillary tube. The end of the capillary tube was sealed with clay sealant and centrifuged at a rate of 9000 rpm for 5 min. The hematocrit level was read using a microhematocrit card reader.\n(§9) 5-Hydroxyindole-2-carboxylic acid (5-HICA) was used as an internal standard in all experiments. Plasma samples were centrifugated at 17 000 rpm for 5 minutes. 125 μL of the supernatant was then pretreated using the Ostro Pass-through Sample Preparation Device (Waters, Saint-Quentin-en-Yvelines, France), including an in-well protein precipitation with acetonitrile (375 μL) in combination with a pass-through method that allows a good extraction. Eluants were evaporated to dryness in a gentle stream of nitrogen gas. […] Total PBUT concentrations were determined by a reverse phase HPLC with an isocratic flow at 0.2 ml/min. p-CS and IS were determined by fluorescence analysis (excitation λex: 270 nm; emission λem: 320 nm)."}, "bovine red blood cells": {"tested_on": "bovine red blood cells", "test": "Hemodialysis of fresh bovine blood: hematocrit, hemolysis, plasma protein", "details": "continuous infusion of octanoate for 2 h"}, "[4]": {"test": "In vivo hemodialysis in anesthetized pigs: removal of p-CS", "details": "octanoate vs saline, 2 h HD; P<0.05"}, "pigs": {"tested_on": "pigs", "test": "In vivo hemodialysis in anesthetized pigs: tolerance"}, "[5]": {"test": "In vivo hemodialysis in anesthetized pigs: removal of IS", "details": "octanoate vs saline, 2 h HD; P<0.05"}, "[6]": {"test": "Hemodialysis of fresh bovine blood (closed loop): removal of IS", "excerpt": "as §8, §9"}, "[7]": {"details": "background art; cited from earlier work"}}, "data": [{"compound": "CCCCCCCCCC(=O)O", "note": "[Decanoate, decanoic acid]", "values": [{"measurement": "hemolysis at 4 h, 3000 µM", "setting": "In vitro hemolysis assay", "result": 21.9, "unit": "%"}, {"measurement": "free fraction of IS", "setting": "human serum albumin [1]", "result": "54% (52%-58%)"}, {"measurement": "free fraction of p-CS", "setting": "human serum albumin [2]", "result": "59% (57%-63%)"}]}, {"compound": "CCCCCCCCCCCC(=O)O", "note": "[Dodecanoate, dodecanoic acid]", "values": [{"measurement": "concentration triggering hemolysis", "setting": "fresh bovine blood; bovine blood", "result": "higher than 0.25 mmol/L"}, {"measurement": "hemolysis at 4 h, 500 µM", "setting": "In vitro hemolysis assay; 0.5 mmol/L", "result": 15.3, "unit": "%"}, {"measurement": "hemolysis at 4 h, 3000 µM", "setting": "In vitro hemolysis assay", "result": 24.9, "unit": "%"}, {"measurement": "free fraction of IS", "setting": "human serum albumin [1]", "result": "42% (41%-44%)"}, {"measurement": "concentration dependence of increase in free fraction of IS", "setting": "human serum albumin [1]", "result": "dose dependently increased the free fraction of IS"}]}, {"compound": "CCCCCC(=O)O", "note": "[Hexanoate, hexanoic acid]", "values": [{"measurement": "hemolysis compared to control", "setting": "fresh bovine blood", "result": "did not trigger any significant hemolysis"}, {"measurement": "hemolysis at 4 h", "setting": "In vitro hemolysis assay", "result": 3.6, "unit": "%"}, {"measurement": "free fraction of IS", "setting": "human serum albumin [1]", "result": "36% (34%-39%)"}, {"measurement": "concentration dependence of increase in free fraction of IS", "setting": "human serum albumin [1]", "result": "only increased the free fraction of IS at the highest concentration tested"}, {"measurement": "free fraction of p-CS", "setting": "human serum albumin [2]", "result": "36% (34%-41%)"}, {"measurement": "concentration dependence of increase in free fraction of p-CS", "setting": "human serum albumin [2]; highest concentration 3 mM", "result": "only increased the free fraction of p-CS at the highest concentration tested"}]}, {"compound": "CCCCCCCC(=O)O", "note": "[Octanoate, octanoic acid]", "values": [{"measurement": "fractional removal of p-CS", "setting": "[3]; 2 h HD, octanoate infusion, control 38%, p<0.001", "result": 88, "unit": "%"}, {"measurement": "half-life of p-CS in plasma", "setting": "[3]; octanoate infusion, control 20.6 min", "result": 12.8, "unit": "min"}, {"measurement": "increase of fractional removal of p-CS", "setting": "[3]; octanoate vs control, p<0.001", "result": 2.3, "unit": "folds"}, {"measurement": "toxin removal, pCS", "setting": "[3]; per-dialytic infusion of octanoate, control 0.3 μmol/min", "result": 1, "unit": "μmol/min"}, {"measurement": "hemolysis compared to control", "setting": "fresh bovine blood", "result": "did not trigger any significant hemolysis"}, {"measurement": "hemolysis at 4 h", "setting": "In vitro hemolysis assay", "result": 2.3, "unit": "%"}, {"measurement": "change in hematocrit", "setting": "bovine red blood cells", "result": "did not elicit any significant change in hematocrit"}, {"measurement": "change in hemolysis levels", "setting": "bovine red blood cells", "result": "did not elicit any significant change in hematocrit or hemolysis levels"}, {"measurement": "increase of dialytic clearance of p-CS", "setting": "[4]", "result": "+101%"}, {"measurement": "hemolysis", "setting": "pigs; hematocrit and free hemoglobin, sodium octanoate i.v. during HD", "result": "no hemolysis"}, {"measurement": "tolerance", "setting": "pigs; sodium octanoate 333 mmol/L i.v. at 18 mL/h, 2 h HD", "result": "Tolerance of all animals was good and no side effect was noticed"}, {"measurement": "increase of dialytic clearance of IS", "setting": "[5]", "result": "+113%"}, {"measurement": "fractional removal of IS", "setting": "[6]; 2 h HD, octanoate infusion, control 36%, p<0.001", "result": 91, "unit": "%"}, {"measurement": "half-life of IS in plasma", "setting": "[6]; octanoate infusion, control 36.4 min", "result": 15.2, "unit": "min"}, {"measurement": "increase of fractional removal of IS", "setting": "[6]; octanoate vs control, p<0.001", "result": 2.5, "unit": "folds"}, {"measurement": "toxin removal, IS", "setting": "[6]; per-dialytic infusion of octanoate, control 1.5 μmol/min", "result": 3.5, "unit": "µmol/min"}]}, {"compound": "CCCCC/C=C\\C/C=C\\CCCCCCCC(=O)O", "note": "[linoleic acid]", "values": [{"measurement": "effect on dyslipidemia", "setting": "[7]", "result": "exacerbate dyslipidemia"}]}, {"compound": "CCCCCCCC/C=C\\CCCCCCCC(=O)O", "note": "[oleic acid]", "values": [{"measurement": "effect on dyslipidemia", "setting": "[7]", "result": "exacerbate dyslipidemia"}]}]}
